From US10087465B2, “Trans-acting elements for intracellular delivery of nucleic acid sequences” (The United States of America, as Represented by the …, priority 2014, dated 2018)
Entries after “also recorded” stand apart in the source; their conditions may differ. {NH2} = C-terminal amide of the PNA; {F1} = fluorescein label

Legend:
Format in all cases: cell-based
HeLa pLuc 705 cells = assay: Endocytic pathway assays; details: dTtaPS-mediated uptake of PNA oligomer 10, chlorpromazine 30 μM, nystatin 50 μM, EIPA 1 mM
Experimental: Endocytic pathway assays: HeLa pLuc 705 cells were seeded in a 96-well plate and grown in 10% FBS-DMEM as described above. The cell culture was then pre-incubated for 30 min at 37° C. in the presence of chlorpromazine, nystatin or 5-(N-ethyl-N-isopropyl)amiloride (EIPA), the final concentration of which was 30 μM, 50 μM or 1 mM, respectively. A 2× solution of PNA oligomer 10:dTtaPS complex was added to the cells to provide an oligomer and dTtaPS final concentration of 1.0 μM and 2.0 μM, respectively. The cells were then incubated for an additional 30 min at 37° C., whereupon luciferase activity was measured as described above in the Luciferase assay protocol. Luminescence measurements were normalized to the amounts of protein present in the test samples and reported as percent luminescence remaining relative to that of the experiment performed in the absence of endocytic pathway inhibitors.

[1] = test system: HEK 293, HeLa, HeLa pLuc705, MCF7 and SK—N—SH live cells; assay: Flow cytometry (FACS) analysis of cellular uptake of fluorescently-labeled PNA or PMO oligomers in live cells; details: for PS-dT8[3+] (dTtaPS)-mediated delivery of fluoresceinated PMO oligomers: PMO oligomer 1 μM, PS-dT8[3+] 2 μM, all cell lines, FIG. 17; for PS-dT8[3+] (dTtaPS)-mediated cellular internalization of fluoresceinated PNA oligomers: in the presence of PS-dT8[3+], oligomer 1 μM, all cell lines under study, FIG. 11
Experimental: (§1) Complex formation between PNA or PMO oligomers and dTtaPS or dAtaPS: Appropriate amounts of PNA or PMO oligomers were diluted in serum-free OptiMEM™ (20 μl). dTtaPS or dAtaPS was added to the oligomer solution to achieve a final concentration that is twice that of the oligomer. After 30 min incubation at 37° C., the PNA or PMO oligomer: dTtaPS or dAtaPS complexes were stored at 4° C. for 15 minutes or until used. Stock solutions (2×) of the complexes were made by adding OptiMEM™ to appropriate volumes.
Flow cytometry analysis of cellular uptake in live cells: The internalization of fluorescently-labeled PNA or PMO sequences (Table 1) in HEK 293, HeLa, MCF7 and SK—N—SH cells was assessed by flow cytometry. Cells were seeded in a 96-well plate (10^4 cells/well) and allowed to grow at 37° C. for 24 h in 10% FBS-MEM. The culture medium of each well was then replaced with fresh medium (100 μl) containing any of the fluorescently-labeled PNA or PMO sequences, the final concentration of which was 1 μM. After an incubation of 18 h at 37° C., the medium was removed from each well by suction and 0.25% Trypsin (50 μl) was added. Upon complete cell detachment, a solution (100 μl) of ice-cold 2% FBS in phosphate-buffered saline (PBS, pH 7.4) was added to each well. The cells were collected into tubes, to which was added 0.4% Trypan blue (50 μl) and 200 µM monensin (20 μl), and analyzed by fluorescence-activated cell sorting (FACS) using a BD FACScan™ flow cytometer. A total of 5000 events were counted and the results were reported as a percentage of the cells that have internalized the fluorescently-labeled oligomers.

HeLa pLuc705 cells = assay: Luciferase splice correction assay; details: for luciferase activity (splice correction) upon PS-dT8[3+] (dTtaPS)-assisted delivery of PNA oligomers: FIG. 12, 13, 15; for luciferase activity / internalization upon PS-dA8[3+] (dAtaPS)-mediated delivery of PNA oligomers: PS-dA8[3+] 2.0 μM, compared with PS-dT8[3+]:10 complex, FIG. 16
Experimental: The efficiency of PS-dT8[3+] in the cellular uptake of polyA-tailed PNA oligomers was assessed through the luciferase splice correction assay in which the mutated intron 2 of the human β-globin gene has been inserted within the coding sequence of a luciferase reporter gene (pLuc705). The activation of a cryptic splice site in this intron leads to a defective luciferase enzyme. In the presence of a PNA oligomer complementary to the aberrant splice site, correct splicing is restored and results in an active luciferase. A concentration-dependence of splice correction activity by PS-dT8[3+]-mediated internalization of the PNA oligomer 10 in HeLa pLuc705 cells is shown in FIG. 12.
as §1
Luciferase assay protocol: HeLa pLuc 705 cells were seeded in a 96-well plate (2×10^4 cells/well) and allowed to grow at 37° C. for 18 h in 10% FBS-DMEM. The culture medium of each well was then replaced with either fresh serum-free or 20% serum-containing OptiMEM™ (50 μl) for experiments intended to be performed in serum-free or in 10% serum-containing media. A 2× solution of PNA or PMO oligomer:dTtaPS or dAtaPS complexes (50 μl) was added to the cells in order to achieve pre-determined complex concentrations, as indicated in the Figures. After a 4-hour incubation at 37° C., 20% FBS in OptiMEM™ (100 μl was added to serum-free experiments and cells were incubated for an additional 18 h at 37° C. The media was then removed by suction and the cells were mixed with a cell lysis reagent (50 μl) and agitated at ambient temperature for 10 minutes. The cell lysate (30 μl) was placed in a white 96-well plate and Bright-Glo™ reagent (20 μl) was added. Luciferase activity was measured using a microplate reader. For each well, luminescence was integrated over a period of 1 sec and recorded as relative light units (RLU). Luminescence measurements were normalized to the amount of protein present in the test sample.
Appropriate amounts of PNA/PMO oligomers were diluted in OptiMEM™ (20 μL) to achieve the concentration of 1 μM or as indicated in the Figures. PS-dT8[3+] or PS-dAs[3+] was added to the above oligomer solutions. After a 30 min incubation at 37° C., the PNA/PMO oligomer:PS-dT8[3+] or PS-dA8[3+] complexes were removed and kept at 4° C. for 15 minutes or until used. Stock solutions of the complexes were made by adding OptiMEM™ to appropriate volumes.
Luciferase Assay: Prior to performing experiments, HeLa pLuc 705 cells were seeded in a 96-well plate (2×10^4 cells/well) and allowed to grow at 37° C. for 18 h in 10% FBS DMEM. The culture medium of each well was then replaced with either fresh 50 μL serum free or 20% serum-containing OptiMEM™ for experiments intended to be performed in serum free or in 10% serum-containing media. A 2× solution of the PNA/PMO oligomer:PS-dT8[3+] or PS-dAs[3+] complexes (50 μL) was added to the cells in order to achieve a pre-determined concentration as indicated in the figures. After a 4-hour incubation at 37° C., 20% FBS in OptiMEM (100 μL) was added to serum free experiments and cells were incubated for an additional 18 h at 37° C. The media was then removed by suction and the cells were mixed with a cell lysis reagent (50 μL) and agitated at ambient temperature over a period of 10 minutes. The cell lysate (30 μL) was placed in white 96-well plate and Bright-Glow™ reagent (20 μL) was added. Luciferase activity was measured using a microplate reader. […]

## CCN(c1nc(N)c(C(=O)N=C(N)N)nc1Cl)C(C)C [EIPA, 5-(N-ethyl-N-isopropyl)amiloride]
HeLa pLuc 705 cells
  inhibition of luciferase production by endocytic pathway inhibitor: ~95%

## C[C@@H]1[C@H](O)[C@@H](C)/C=C/C=C/CC/C=C/C=C/C=C/C=C/C(O[C@H]2O[C@H](C)[C@@H](O)[C@H](N)[C@@H]2O)CC2O[C@](O)(CC(O)C(O)CCC(O)CC(O)CC(O)CC(=O)O[C@H]1C)CC(O)C2C(=O)O (stereo partly shown) [Nystatin, nystatin]
HeLa pLuc 705 cells
  inhibition of luciferase production by endocytic pathway inhibitor: did not inhibit

## CN(C)CCCN1c2ccccc2Sc2ccc(Cl)cc21 [chlorpromazine]
HeLa pLuc 705 cells; Homo sapiens, HeLa, read-out: inhibition of luciferase production by endocytic pathway inhibitor
  inhibition at 30 µM: ~40%

## PMO oligomer 19: commercial PMO, GTGGCCGTTTACGTCGCC-AAAAAA-F1, SEQ ID NO. 13 (GTGGCCGTTTACGTCGCCAAAAAA; PMO, F1 label, chemistry not fully specified)
[1]; listed as 19
  PS-dT8[3+] (dTtaPS)-mediated delivery of fluoresceinated PMO oligomers: confirmed the dTtaPS-assisted delivery

## PMO oligomer 20: commercial PMO, CCTCTTACCTCAGTTACA-F1, SEQ ID NO. 14 (all phosphorodiamidate morpholino (PMO), 3' {F1})
[1]
  PS-dT8[3+] (dTtaPS)-mediated delivery of fluoresceinated PMO oligomers: reduced to that of the medium

## PMO oligomer 24: commercial PMO, CCTCTTACCTCAGTTACA-AATAAA, SEQ ID NO. 18 (CCTCTTACCTCAGTTACAAATAAA; all phosphorodiamidate morpholino (PMO))
HeLa pLuc705 cells; PMO oligomer 1 μM, PS-dT8[3+] 2 μM, relative to PMO oligomer 21, FIG. 18, listed as 24
  luciferase activity upon PS-dT8[3+] (dTtaPS)-assisted internalization of PMO oligomers: did not significantly decrease; also recorded: did not significantly affect

## PNA oligomer 8: commercial PNA, F1-GTGGCCGTTTACGTCGCC-AAAAAA-NH2, SEQ ID NO. 2 (GTGGCCGTTTACGTCGCCAAAAAA; PNA, F1 label, C-amide, chemistry not fully specified)
[1]
  PS-dT8[3+] (dTtaPS)-mediated cellular internalization of fluoresceinated PNA oligomers: efficiently internalized

## PNA oligomer 9: commercial PNA, F1-CCTCTTACCTCAGTTACA-NH2, SEQ ID NO. 3 (all peptide nucleic acid (PNA), 5' {F1}; PNA with C-terminal amide, further chemistry not fully specified)
[1]
  PS-dT8[3+] (dTtaPS)-mediated cellular internalization of fluoresceinated PNA oligomers: not significantly internalized

## PNA oligomer 11: commercial PNA, negative control, H-GTGGCCGTTTACGTCGCC-AAAAAA-NH2, SEQ ID NO. 5 (GTGGCCGTTTACGTCGCCAAAAAA; all peptide nucleic acid (PNA); PNA with N-terminal H and C-terminal amide, further chemistry not fully specified)
HeLa pLuc705 cells; PS-dT8[3+] 2 μM, listed as 11
  luciferase activity (splice correction) upon PS-dT8[3+] (dTtaPS)-assisted delivery of PNA oligomers: failed, as expected for a negative control, to restore luciferase activity

## PNA oligomer 12: commercial PNA, H-CCTCTTACCTCAGTTACA-NH2, SEQ ID NO. 6 (all peptide nucleic acid (PNA); PNA with N-terminal H and C-terminal amide, further chemistry not fully specified)
HeLa pLuc705 cells; PS-dT8[3+] 2 μM
  luciferase activity (splice correction) upon PS-dT8[3+] (dTtaPS)-assisted delivery of PNA oligomers: did not restore luciferase activity

## PNA oligomer 15: commercial PNA, H-CCTCTTACCTCAGTTACA-TTTTTT-NH2, SEQ ID NO. 9 (CCTCTTACCTCAGTTACATTTTTT; all peptide nucleic acid (PNA); PNA with N-terminal H and C-terminal amide, further chemistry not fully specified)
HeLa pLuc705 cells; listed as 15
  luciferase activity / internalization upon PS-dA8[3+] (dAtaPS)-mediated delivery of PNA oligomers: about half the level of luciferase activity
HeLa pLuc705 cells; PS-dT8[3+] 2 μM, listed as 15
  luciferase activity (splice correction) upon PS-dT8[3+] (dTtaPS)-assisted delivery of PNA oligomers: did not result in significant production of luciferase activity; also recorded: did not lead to the production of luciferase activity

## PNA oligomer 16: commercial PNA, H-CCTCTTACCTCAGTTACA-CCCCCC-NH2, SEQ ID NO. 10 (CCTCTTACCTCAGTTACACCCCCC; all peptide nucleic acid (PNA), 3' {NH2}; further chemistry not fully specified)
HeLa pLuc705 cells; listed as 16
  luciferase activity / internalization upon PS-dA8[3+] (dAtaPS)-mediated delivery of PNA oligomers: failed to recognize and internalize
HeLa pLuc705 cells; PS-dT8[3+] 2 μM, listed as 16
  luciferase activity (splice correction) upon PS-dT8[3+] (dTtaPS)-assisted delivery of PNA oligomers: did not result in significant production of luciferase activity; also recorded: did not lead to the production of luciferase activity

## PNA oligomer 17: commercial PNA, H-AAAAAA-CCTCTTACCTCAGTTACA-NH2, SEQ ID NO. 11 (AAAAAACCTCTTACCTCAGTTACA; all peptide nucleic acid (PNA); PNA with N-terminal H and C-terminal amide, further chemistry not fully specified)
HeLa pLuc705 cells; listed as 17
  luciferase activity / internalization upon PS-dA8[3+] (dAtaPS)-mediated delivery of PNA oligomers: failed to recognize and internalize
HeLa pLuc705 cells; PS-dT8[3+] 2 μM
  luciferase activity (splice correction) upon PS-dT8[3+] (dTtaPS)-assisted delivery of PNA oligomers: did not significantly affect
